Results reported in PMC9585589 (ACS Chemical Neuroscience, 2022).
Where two headings read alike, the source gives them in different places.

Experiments:
human CB1 receptor = human CB1 receptor (Homo sapiens, UniProt P21554); experiment: biochemical; assay type: binding; design: purchased Merck HTS019M; host or cells: Chem-1 cells
Text: Compounds selected for the in vitro binding assay from the first iteration of VS were purchased via MolPort, SIA, Riga, Latvia and Biopurify Phytochemicals Ltd., Chengdu, China. Compounds from the second iteration were purchased from MolPort, SIA, Riga, Latvia and Chemspace, SIA, Riga, Latvia (Supporting Information S3). […] Membranes from cells overexpressing the human CB1 receptor (ChemiScreen CB1 Cannabinoid Receptor Membrane Preparation, cat. no. HTS019M) as well as MgCl2, CaCl2, Trizma Base, NaCl, polyethylenimine (PEI) and dimethyl sulfoxide (DMSO) were purchased from Merck (USA). Bovine serum albumin (BSA) was obtained from Pol-Aura (Poland).
Compounds were dissolved in 50% DMSO and added to the reaction mixture at 10 concentrations equally spaced on a log scale (10^–10 to 10^–4.5 M). The final DMSO concentration was 5%. […] The reaction mixture (500 μL) was incubated for 1.5 h at 30°C . Before harvesting, Whatman GF/B Filter Paper (Brandel, USA) was presoaked with 0.33% PEI buffer for 30 min. and then washed with 2 ml of 50 mM Tris-HCl buffer (pH = 7.4) and 0.5% BSA to minimize non-specific binding. The reaction was terminated by depositing the samples onto GF/B filter paper with the Brandel M-24 Cell Harvester (Brandel, USA). Samples were then rapidly washed 3 times with 2 ml of ice-cold wash buffer (50 mM Tris-HCl pH 7.4, 500 mM NaCl) to separate the bound radioligand from free. Filters were then air-dried for 1 h at 60°C . After drying, filter discs were placed on a flexible 24-well plate and 500 μL of EcoScint-20 scintillant was added to each well. Plates were counted (2 min. per well) in a Trilux MicroBeta^2 2450 scintillation counter (Perkin Elmer, USA). Data were analyzed with GraphPad Prism 5.0 software.[89]

human CB1 = details: one per compound, cited from earlier work
[1] = [3H]CP-55,940 displacement, membranes of Chem-1 cells expressing human CB1
[2] = CB1 agonists, Table S8, ref SI (1)-(19)
[3] = CB1 antagonists/inverse agonists, Table S9, ref SI (20)-(38)
[4] = [3H]CP-55,940 displacement, membranes of Chem-1 cells expressing human CB1, read-out: pKi ± SEM (converted)

Chain of human CB1 receptor (P21554 whole entry): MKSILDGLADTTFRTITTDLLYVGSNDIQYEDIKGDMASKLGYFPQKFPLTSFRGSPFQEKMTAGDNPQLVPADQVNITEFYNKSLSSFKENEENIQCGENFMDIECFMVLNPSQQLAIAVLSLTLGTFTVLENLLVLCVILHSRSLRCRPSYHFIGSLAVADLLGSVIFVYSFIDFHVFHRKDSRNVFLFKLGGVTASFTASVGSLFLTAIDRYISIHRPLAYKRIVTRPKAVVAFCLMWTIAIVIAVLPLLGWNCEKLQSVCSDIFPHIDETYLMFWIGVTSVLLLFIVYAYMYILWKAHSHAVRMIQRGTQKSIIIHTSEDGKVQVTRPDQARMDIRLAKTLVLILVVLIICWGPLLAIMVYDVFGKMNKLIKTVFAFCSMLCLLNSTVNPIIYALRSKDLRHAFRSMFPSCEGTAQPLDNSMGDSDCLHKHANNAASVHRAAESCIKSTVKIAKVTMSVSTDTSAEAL

Compound | pKi ± SEM (human CB1 receptor; [1]) | Ki (μM, 95% CI) (human CB1 receptor) | further results
Cc1c(O[C@H](C)C(=O)NC[C@@H](O)c2ccccc2)ccc2c(-c3ccccc3)cc(=O)oc12 (racemic) [Compound 25] | 4.86 ± 0.09 | – | Ki (human CB1 receptor; read-out: Ki (μM, 95% CI)): 13.9 µM
Cc1ccc(COc2ccc3c(C)c(CC(=O)N4CCC5(O)CCCCC5C4)c(=O)oc3c2C)cc1 (racemic) [Compound 27] | insoluble | insoluble | –
COc1ccc(-c2cc(=O)c3c(O)cc4c(c3o2)C(c2cccc(Cl)c2F)CC(=O)O4)cc1O (racemic) [Compound 31] | no activity | no activity | –
Cc1ccc(S(=O)(=O)NC(Cc2c[nH]c3ccccc23)C(=O)Oc2ccc3c4c(c(=O)oc3c2)CCC4)cc1 (racemic) [Compound 36] | 4.39 ± 0.09 | – | Ki (human CB1 receptor; read-out: Ki (μM, 95% CI)): 41 µM
COc1cc2c(cc1OC)CN(C(=O)NC(CCSC)C(=O)NC1CCCc3ccccc31)CC2 (racemic) [Compound 39] | 4.40 ± 0.07 | – | Ki (human CB1 receptor; read-out: Ki (μM, 95% CI)): 40 µM
CCCCNC(=O)[C@@H]1CN(C(=O)c2cccc(OC)c2)C[C@H]1c1ccc(OC)cc1OC (racemic) [Compound 42] | no activity | no activity | –
CCCCC/C=C\C/C=C\C/C=C\C/C=C\CCCC(=O)NCCCl [ACEA] | – | – | Ki (human CB1; [2]): 0.0053 µM
Cc1c(C(=O)NN2CCOCC2)nn(-c2ccc(Cl)cc2Cl)c1-c1ccc(I)cc1 [AM-281] | – | – | Ki (human CB1; [3]): 0.012 µM
CC1=CC[C@@H]2[C@@H](C1)c1c(O)cc(C34CC5CC(CC(C5)C3)C4)cc1OC2(C)C [AM-411] | – | – | Ki (human CB1; [2]): 0.0068 µM
CC(C)(CCCCCCN=C=S)c1cc(O)c2c(c1)OC(C)(C)[C@@H]1CC[C@@H](CO)C[C@@H]21 [AM-841] | – | – | Ki (human CB1; [2]): 0.00114 µM
Cc1c(C(=O)NN2CCCCC2)nn(-c2ccc(Cl)cc2Cl)c1-c1ccc(C#CCCO[N+](=O)[O-])cc1 [AM-6538] | – | – | Ki (human CB1; [3]): 0.0034 µM
Cc1c(C(=O)NN2CCS(=O)(=O)CC2)nn(-c2ccc(Cl)cc2Cl)c1-c1ccc(C#CCCC#N)cc1 [AM-6545] | – | – | Ki (human CB1; [3]): 0.0017 µM
CC1=CC[C@@H]2[C@@H](C1)c1c(O)cc(C(C)(C)CCCCCCBr)cc1OC2(C)C [AM-11542] | – | – | Ki (human CB1; [2]): 0.00011 µM
CCOc1ccc(Cc2nc3cc(N(C)S(=O)(=O)c4cccs4)ccc3n2CC2CCCCC2)nc1 [AZ-11713908] | – | – | Ki (human CB1; [2]): 0.003 µM
CCCCCCC(C)(C)c1cc(O)c2c(c1)OC(C)(C)[C@@H]1CC=C(C(=O)O)C[C@@H]21 [Ajulemic acid] | – | – | Ki (human CB1; [2]): 0.0057 µM
CCCCC/C=C\C/C=C\C/C=C\C/C=C\CCCC(=O)NCCO [Anandamide] | – | – | Ki (human CB1; [2]): 0.07 µM
COc1ccccc1Oc1c(NS(=O)(=O)c2ccc(C(C)(C)C)cc2)nc(-c2ncccn2)nc1OCCO [Compound 1, Bosentan] | – | – | Ki (human CB1 receptor; Ki (μM, 95% CI)): 259 µM
O=c1[nH]c2ccccc2n1CCN1CCN(c2cccc(C(F)(F)F)c2)CC1 [Compound 2, Flibanserin] | – | – | Ki (human CB1 receptor; Ki (μM, 95% CI)): 109 µM
COc1cc(C(C)=O)ccc1OCCCN1CCC(c2noc3cc(F)ccc23)CC1 [Compound 3, Iloperidone] | – | – | Ki (human CB1 receptor; Ki (μM, 95% CI)): 87.9 µM; Ki (human CB1 receptor; [4]): 89.1 µM
O=C1[C@@H]2[C@H]3CC[C@H](C3)[C@@H]2C(=O)N1C[C@@H]1CCCC[C@H]1CN1CCN(c2nsc3ccccc23)CC1 [Compound 4, Lurasidone] | – | – | Ki (human CB1 receptor; Ki (μM, 95% CI)): 39.8 µM
COC(=O)C1=C(C)NC(C)=C(C(=O)OCCN(C)Cc2ccccc2)C1c1cccc([N+](=O)[O-])c1 (stereo not drawn) [Compound 5, Nicardipine] | no activity | no activity | –
CC(C)COc1ccc(CNC(=O)N(Cc2ccc(F)cc2)C2CCN(C)CC2)cc1 [Compound 6, Pimavanserin] | – | – | Ki (human CB1 receptor; [4]): 33.9 µM
O=C(NC[C@H]1CN(c2ccc(N3CCOCC3=O)cc2)C(=O)O1)c1ccc(Cl)s1 [Compound 7, Rivaroxaban] | no activity | no activity | –

Compound | pKi ± SEM (human CB1 receptor; [1]) | Ki (μM, 95% CI) (human CB1 receptor) | further results
CCCSc1nc(N[C@@H]2C[C@H]2c2ccc(F)c(F)c2)c2nnn([C@@H]3C[C@H](OCCO)[C@@H](O)[C@H]3O)c2n1 [Compound 8, Ticagrelor] | – | – | Ki (human CB1 receptor; [4]): 36.3 µM
CC(C)=CCC[C@](C)(O)[C@H]1CC[C@]2(C)[C@@H]1[C@H](O)C[C@@H]1[C@@]3(C)CC[C@H](O)C(C)(C)[C@@H]3[C@@H](O)C[C@]12C [Compound 10, (20S)-Protopanaxatriol] | no activity | no activity | –
O=c1cc(-c2ccc(O)cc2)oc2c(C3O[C@H](CO)[C@@H](O[C@@H]4O[C@H](CO)[C@@H](O)[C@H](O)[C@H]4O)[C@H](O)[C@H]3O)c(O)cc(O)c12 (stereo partly drawn) [Compound 11, 4”-O-Glucosylvitexin] | no activity | no activity | –
C[C@@]12C[C@@]3(O)O[C@@H](O1)[C@]1(COC(=O)c4ccccc4)[C@H]3C[C@@]12O[C@@H]1O[C@H](COC(=O)c2ccccc2)[C@@H](O)[C@H](O)[C@H]1O [Compound 12, Benzoylpaeoniflorin] | – | – | Ki (human CB1 receptor; Ki (μM, 95% CI)): 179 µM
O=C(O[C@@H]1O[C@@H]2COC(=O)c3cc(O)c(O)c(O)c3-c3c(cc(O)c(O)c3O)C(=O)O[C@H]([C@H]1O)[C@@H]2O)c1cc(O)c(O)c(O)c1 [Compound 13, Corilagin] | – | – | Ki (human CB1 receptor; Ki (μM, 95% CI)): 48 µM
CC(C)(O)[C@@H]1CC[C@](C)([C@H]2[C@@H](O)C[C@@]3(C)[C@@H]4C[C@H](O)[C@H]5C(C)(C)[C@@H](O)CC[C@@]56C[C@@]46CC[C@]23C)O1 [Compound 14, Cyclogalegenol] | 3.76 ± 0.20 | – | Ki (human CB1 receptor; read-out: Ki (μM, 95% CI)): 175 µM
COc1cc2c(cc1OC)[C@@H](Cc1ccc(O)c(Oc3cc4c(cc3OC)CCN(C)[C@@H]4Cc3ccc(O)cc3)c1)N(C)CC2 [Compound 16, Liensinine] | no activity | no activity | –
COc1cc2c(=O)c3c(O)c([C@@H]4O[C@H](CO[C@@H]5OC[C@](O)(CO)[C@H]5O)[C@@H](O)[C@H](O)[C@H]4O)c(O)cc3oc2cc1O [Compound 18, Polygalaxanthone III] | no activity | no activity | –
OCC1=C[C@@H](O)[C@]2(O[C@@H]3O[C@H](CO)[C@@H](O)[C@H](O)[C@H]3O[C@@H]3O[C@H](CO)[C@@H](O)[C@H](O)[C@H]3O)C=CO[C@@H](O[C@@H]3O[C@H](CO)[C@@H](O)[C@H](O)[C@H]3O)[C@H]12 [Compound 19, Rehmannioside D] | no activity | no activity | –
COc1cc(C2Oc3cc([C@H]4Oc5cc(O)cc(O)c5C(=O)[C@@H]4O)ccc3OC2CO)ccc1O (stereo partly drawn) [Compound 20, Silybin] | – | – | Ki (human CB1 receptor; Ki (μM, 95% CI)): 165 µM
O=c1c(O)cc([C@H]2Oc3cc(O)cc(O)c3C[C@H]2O)cc2c([C@H]3Oc4cc(O)cc(O)c4C[C@H]3O)cc(O)c(O)c12 [Compound 21, Theaflavin] | no activity | no activity | –
O=C(/C=C/c1ccc(O)cc1)OC[C@H]1O[C@@H](Oc2c(-c3ccc(O)cc3)oc3cc(O)cc(O)c3c2=O)[C@H](O)[C@@H](O)[C@@H]1O [Compound 22, Tiliroside] | – | – | Ki (human CB1 receptor; Ki (μM, 95% CI)): 47.2 µM
O=C(NCCc1ccc(F)cc1)c1cc2c([nH]c3ccccc32)c(-c2ccc(F)cc2)n1 [Compound 23] | no activity | no activity | –
CC(C)=CCC/C(C)=C/Cc1cc(C2CC(=O)c3c(O)cc(O)cc3O2)c(O)cc1O (stereo not drawn) [Compound 24, Kuwanon E] | – | – | Ki (human CB1 receptor; [4]): 30.9 µM
CC(C)=CCCC1(C)C=Cc2c(ccc(C3CC(=O)c4c(O)cc(O)cc4O3)c2O)O1 (stereo not drawn) [Compound 26, Sanggenon N] | 4.71 ± 0.05 | – | Ki (human CB1 receptor; read-out: Ki (μM, 95% CI)): 19 µM
COc1ccc(CCNC(=O)c2[nH]c3ccccc3c2NC(=O)c2cccc(C)c2)cc1OC [Compound 28] | no activity | no activity | –
CCCS(=O)(=O)Nc1ccc(F)c(C(=O)c2c[nH]c3ncc(-c4ccc(Cl)cc4)cc23)c1F [Compound 29, Vemurafenib] | no activity | no activity | –
COc1ccc(-c2nc(C(=O)NCCc3ccc(Cl)cc3Cl)cc3c2[nH]c2ccccc23)cc1OC [Compound 35] | 4.35 ± 0.09 | – | Ki (human CB1 receptor; read-out: Ki (μM, 95% CI)): 44 µM
COc1ccc(-c2nc3ccc(C(=O)NCc4ccc(Cl)cc4)cc3nc2-c2ccc(OC)cc2)cc1 [Compound 37] | no activity | no activity | –
COc1ccc(-n2c(=O)c3ccc(C(=O)NCCc4ccccc4)cc3n(Cc3ccccc3F)c2=O)cc1 [Compound 40] | no activity | no activity | –
O=C1NCCN1CCN1CCC(c2cn(-c3ccc(F)cc3)c3ccc(Cl)cc23)CC1 [Compound 44, Sertindole] | – | – | Ki (human CB1 receptor; [4]): 41.7 µM
Cc1nc2c([nH]1)-c1ccccc1N(C(=O)c1ccc(NC(=O)c3ccccc3-c3ccccc3)cc1)CC2 [Compound 45, Conivaptan] | no activity | no activity | –
